Assays:
[1] = tested on: panel of 48 kinases; assay: KinomeScan primary screening (POC) at 10 μM; assay type: binding, human; conditions: POC values
Excerpt: Synthesized compounds were screened against a panel of 48 kinases selected within the ScanEDGE subset of DiscoverX (http://www.discoverx.com/services/drug-discovery-development-services/kinase-profiling/kinomescan/scanedge). The ScanEDGE includes 97 kinases and is an economical approach to assess compounds selectivity throughout the human kinome. All the wt-TKs along with some relevant mutants of Abl1 (T315I) and of EGFR (L858R and L858R/T790M) were chosen. The remaining 18 targets (3 Tyrosine Kinases-Like, TKLs; 15 Serine-Threonine Kinases, STKs) were selected among the remaining kinases in the ScanEDGE subset on the basis of their well established role in cancer (see Fig. S2 for a graphical representation of the selected kinases with reference to the kinome tree. Some references highlighting the role of each kinase in cancer are also reported in Table S3).
The compounds were evaluated using the KinomeScan™ platform (http://www.discoverx.com/services/drug-discovery-development-services/kinase-profiling/kinomescan), that measures the ability of the test compound to disrupt the complex between a high affinity ATP-mimic probe immobilized on a solid support and the kinase of interest. The KinomeScan is a very helpful technology for the fast and reliable screening of a number of compounds against a wide and customizable panel of kinases. Besides, it is not based on the use of hazardous radioactive ^32P-ATP and has a very low rate of false positive (<1%)[44]. The screening platform outputs a “Percent of Control” (POC) value, statistically correlated to the dissociation constant (Kd) value (http://www.discoverx.com/tools-resources/leadhunter-study-reports-data-analysis), for each pair of kinase/ligand. The POC is calculated as reported in equation (1):
Where: test compound signal = amount of kinase still binding the probe after treatment with test compound; negative control signal = amount of kinase still binding the probe after treatment with DMSO (100% control); positive control signal = amount of kinase still binding the probe after treatment with control compound (0% control).
The compounds were tested at high concentration (10 μM), in order to highlight not only the main target but also the off-targets. The results of the preliminary screening are reported as heat map (Fig. 4; see also Table S4 for all the measured values), in which the compounds are grouped on the basis of the 6 or 5 substituent at the pyrimidine ring.

[2] = tested on: Lewis Lung Carcinoma (LLC); assay: In vivo anticancer activity toward Lewis Lung Carcinoma (LLC); conditions: LLC in C57BL mice, 27 at 7.5 mg/kg, CDDP at 1.5 mg/kg
Excerpt: (§1) Besides, it was as cytotoxic as 19 towards cancer cells while showing a more favorable selectivity index. On these basis, compound 27 was chosen for in vivo experiments against a syngeneic murine solid tumor model, the murine Lewis Lung Carcinoma (LLC). The tumor growth inhibition induced by 27 was compared with that promoted by cisplatin (CDDP), the most common chemotherapeutic drug used in the treatment of lung cancers. Nine days after tumor inoculation, tumor-bearing mice were randomized into vehicle control and treatment groups (8 mice per group). Control mice received the vehicle (0.2%v/v EtOH and 99.8%v/v of a saline solution), whereas treated groups received daily doses of 27 (7.5 mg · kg^−1 in the vehicle solution composed of 0.2%v/v EtOH and 99.8%v/v of saline solution) or CDDP (1.5 mg · kg^−1 in saline solution). Tumor growth was estimated at day 20 (Fig. 7a). As an indication of the adverse side effects, changes in the body weights of tumor-bearing mice were monitored at day 1 and daily from day 9.
Figure 7 In vivo testing of compound 27. Lewis lung carcinoma (LLC) was implanted i.m. (2 · 10^6 cells inoculum) into the right hind leg of 8-week old imbred C57BL mice. Nine days after tumor inoculation (palpable tumor), tumor-bearing mice were randomized into vehicle control and treatment groups (8 mice per group). Compound 27 was dosed daily at 7.5 mg/kg ip and CDDP was dosed daily at 1.5 mg/kg ip. At day 20, animals were sacrificed (i.e., before tumor can cause the animal discomfort), the legs were amputated at the proximal end of the femur, and the inhibition of tumor growth was determined according to the difference in weight of the tumor-bearing leg and the healthy leg of the animals expressed as % referred to the control animals. Control was constituted by vehicle (0.2%v/v EtOH and 99.8%v/v of saline solution). CDDP was used as positive reference. Both 27 and CDDP were administered at the highest not toxic doses (7.5 and 1.5 mg/kg, respectively), as determined by MTD studies. (a) Average tumor weight (g) after 20 days of treatment with control or compounds. (b) Percentage of reduction in tumor growth after 20 days of treatment with respect to control mice. (c) Body weight changes. The body weight changes of LLC bearing C57BL mice treated with vehicle or tested compounds. Each drug was administered daily after 9 days from the tumor cell inoculum. Weights were measured at day 1 and daily from day 9. Error bars indicate the standard deviation.
All studies involving animal testing were carried out in accordance with the ethical guidelines for animal research adopted by the University of Padua, acknowledging the Italian regulation (D.L.G.S. 116/92) and European Directive 86/609/EEC as to the animal welfare and protection and the related codes of practice. […]

[3] = Body weight changes of LLC bearing mice; assay type: in vivo; conditions: LLC bearing C57BL mice, 27 daily 7.5 mg/kg ip
Excerpt: as §1, with “Control mice received the vehicle (0.2%v/v EtOH and 99.8%v/v of a saline solution), whereas treated groups received daily doses of 27 (7.5 mg · kg^−1 in the vehicle solution composed of 0.2%v/v EtOH and 99.8%v/v of saline solution) or CDDP (1.5 mg · kg^−1 in saline solution). Tumor growth was estimated at day 20 (Fig. 7a).” left out
Figure 7 In vivo testing of compound 27. […] At day 20, animals were sacrificed (i.e., before tumor can cause the animal discomfort), the legs were amputated at the proximal end of the femur, and the inhibition of tumor growth was determined according to the difference in weight of the tumor-bearing leg and the healthy leg of the animals expressed as % referred to the control animals. […] Both 27 and CDDP were administered at the highest not toxic doses (7.5 and 1.5 mg/kg, respectively), as determined by MTD studies. […] Weights were measured at day 1 and daily from day 9. […]

[4] = MTD studies (highest not toxic dose); assay type: in vivo; conditions: C57BL, mouse, in vivo; daily ip; read-out: Highest not toxic dose as determined by MTD studies

Row | SMILES | Selectivity profile (kinases targeted) in primary screening [1] | Inhibition of tumor growth (%) ([2]; daily ip from day 9, day 20, versus vehicle control) | Average tumor weight (mean±S.D., g) ([2]; daily ip from day 9, day 20) | Body weight loss [3] | MTD [4]
1 | O=C(Nc1ccccc1)Nc1ccc(Nc2cc(-c3ccccc3)ncn2)cc1 [Compound 19] | class III RTK | – | – | – | –
2 | O=C(CN1CCOCC1)Nc1cccc(-c2cc(Nc3ccc(NC(=O)Nc4ccccc4)cc3)ncn2)c1 [Compound 27] | – | 84.7% | 0.075 ± 0.03 g | < 10% | 7.5 mg/kg

From PMC4645160, “Targeting kinases with anilinopyrimidines: discovery of N-phenyl-N’-[4-(pyrimidin-4-ylamino)phenyl]urea derivatives as selective inhibitors of class III receptor tyrosine kinase subfamily” (Scientific Reports, 2015)
